The values below come from patent US20080274076A1, “Composition for Use in Controlling Aedes Aegypti Mosquitoes” (priority 2005, published 2008).

Assay [1] deals with Aedes aegypti mosquitoes. Description: oviposition attractant effect of semio-chemicals identified in larval conditioned water. The format is in vivo. The source says:
The present invention also relates to a process for the preparation of compositions for use in lure and/or killing of Aedes aegypti mosquitoes. The present invention is based on the unexpected finding that Aedes aegypti mosquitoes tend to lay eggs in stagnant water where eggs of the same species of mosquitoes had been laid previously. This led the inventors to analyse various samples of water which in turn led to the finding that water in which eggs had previously been laid by Aedes aegypti mosquitoes and which had hatched into larval stage contained various semio-chemicals. Analysis of these semio-chemicals identified them as heneicosane, nonacosane, octadecane, isopropyl myristate and docosane. […] When, stagnant water in which Aedes aegypti mosquitoes had bred earlier was left untouched the incidence of further egg laying in the same water and thriving of larval population increased. […]
Aedes aegypti mosquitoes are bred and the water is collected for isolation where the mosquitoes are at larval stage. […] The extractant is analysed by various spectral techniques like IR, NMR and GCMS and the five semio-chemicals identified are heneicosane, nonacosane, octadecane, isopropyl myristate and decosane.

Assay [2] has as its system Aedes aegypti mosquitoes. As to the kind of experiment: field test of the luring effect: open water tanks, one treated with heneicosane solution. The format is in vivo. The method, then: Fifteen open tanks with water filled to the top were kept in the open. All the tanks were made of same material, were of the same size and contained same amount of water from the same source. The tanks were numbered consecutively and allowed to remain for a week.
All the fifteen tanks were drained of water and thoroughly cleaned. Subsequently, they were filled with water from the same source. In tank No. 1, a predetermined amount of a solution of heneicosane in n-hexane (1% w/v) was added. After fifteen days, water from each tank was analysed.
Example No. 4 was repeated 14 times with heneicosane being added in tank Nos. 2 to 15 consequentially.
Example Nos. 4 and 5 were repeated with heneicosane dissolved in n-pentane.
The above example was repeated with varying concentrations of heneicosane in the solvent.

Molecules are shown by their SMILES.

For `CCCCCCCCCCCCCCCCCCCCC` [heneicosane, n-heneicosane], the “effectiveness as oviposition attractant among the five identified semio-chemicals” value in the assay on Aedes aegypti mosquitoes [1] (compared with nonacosane, octadecane, isopropyl myristate and docosane) is on record as “most effective oviposition attractant”. Further, the “site of egg laying, stagnant water versus water containing heneicosane” value in the assay on Aedes aegypti mosquitoes [1] (stagnant water kept alongside water containing heneicosane) was “the entire egg laying took place only in water containing heneicosane”. Moreover, the “attraction of mosquitoes to lay eggs in the treated tank” value with Aedes aegypti mosquitoes [2] (Example 4 repeated 14 times with heneicosane added in tank Nos. 2 to 15 consequentially) is on record as “each time the tank containing heneicosane attracted Aedes aegypti mosquitoes to lay their eggs therein”. In addition, in the assay on Aedes aegypti mosquitoes [2] (Example Nos. 4 and 5 repeated with heneicosane dissolved in n-pentane), the “luring result with another solvent” value is “The results were exactly the same”. Besides, the “mosquito larvae found in tanks (egg laying lured to treated tank)” value in the assay on Aedes aegypti mosquitoes [2] (field conditions, 15 open tanks, solution of heneicosane in n-hexane (1% w/v) added to tank No. 1, after fifteen days) is “only tank No. 1 containing the heneicosane contained mosquito larvae”.
